Measured values reported in patent US7659244B2, “Rapamycin peptides conjugates: synthesis and uses thereof” (Quest Pharmatech, Inc., priority 2004, dated 2010).
Like-named read-outs stand apart in the source and are kept apart here.

Legend:
[1] = read-out: Inhibition of H^3 Thymidine uptake (IC50 in nM), SKOV-3 cells, 96 hours incubation
[2] = read-out: Inhibition of H^3 Thymidine uptake (IC50 in nM), MCF-7 cells, 96 hours incubation
[3] = read-out: Inhibition of H^3 Thymidine uptake (IC50 in nM), SKMEL-2 cells, 96 hours incubation
[4] = read-out: Inhibition of H^3 Thymidine uptake (IC50 in nM), LS174T cells, 96 hours incubation
[5] = read-out: Inhibition of H^3 Thymidine uptake (IC50 in nM), Lncap cells, 96 hours incubation
[6] = read-out: Inhibition of H^3 Thymidine uptake (IC50 in nM), SK-N-SH cells, 96 hours incubation
[7] = read-out: Inhibition of H^3 Thymidine uptake (IC50 in nM), OVCAR-3 cells, 96 hours incubation
[8] = read-out: Inhibition of H^3 Thymidine uptake (IC50 in nM), D341 cells, 96 hours incubation
[9] = read-out: Inhibition of H^3 Thymidine uptake (IC50 in nM), A431 cells, 96 hours incubation

| IC50 (SKOV-3; 96 h) | IC50 (OVCAR-3; 96 h) | IC50 (MCF-7; 96 h) | IC50 (SKMEL-2; 96 h) | IC50 (D341; 96 h) | IC50 (LS174T; 96 h) | IC50 (A431; 96 h) | IC50 (Lncap; 96 h) | IC50 (SK-N-SH; 96 h) | Molecule | IC50 (SKOV-3; [1]) | IC50 (MCF-7; [2]) | IC50 (SKMEL-2; [3]) | IC50 (LS174T; [4]) | IC50 (Lncap; [5]) | IC50 (SK-N-SH; [6]) | IC50 (OVCAR-3; [7]) | IC50 (D341; [8]) | IC50 (A431; [9]) |
| --- | --- | --- | --- | --- | --- | --- | --- | --- | --- | --- | --- | --- | --- | --- | --- | --- | --- | --- |
| – | – | – | – | – | – | – | – | – | CO[C@H]1C[C@@H]2CC[C@@H](C)[C@@](O)(O2)C(=O)C(=O)N2CCCC[C@H]2C(=O)O[C@H]([C@H](C)C[C@@H]2CC[C@@H](OC(=O)NC3C(=O)OC(C)(C)OC3=O)[C@H](OC)C2)CC(=O)[C@H](C)/C=C(\C)[C@@H](O)[C@@H](OC)C(=O)[C@H](C)C[C@H](C)/C=C/C=C/C=C/1C [Compound 7x] | 3.4 nM | 7.09 nM | 113 nM | 433 nM | 3.32 nM | 11.3 nM | – | – | – |
| – | – | – | – | – | – | – | – | – | Rapamycin-42-O-ester-(R) (+)-2-amino-3-phenyl-1-propanol [Compound 7k] | 66 nM | 15.9 nM | 109 nM | 1380 nM | 146 nM | 71.3 nM | 296 nM | 259 nM | 550 nM |
| – | – | – | – | – | – | – | – | – | CO[C@H]1C[C@@H]2CC[C@@H](C)[C@@](O)(O2)C(=O)C(=O)N2CCCC[C@H]2C(=O)O[C@H]([C@H](C)C[C@@H]2CC[C@@H](OC(=O)NC(CO)(CO)CO)[C@H](OC)C2)CC(=O)[C@H](C)/C=C(\C)[C@@H](O)[C@@H](OC)C(=O)[C@H](C)C[C@H](C)/C=C/C=C/C=C/1C [Compound 7u, Rapamycin-42-O-ester-Tris(hydroxymethyl)amino methane] | 8.08 nM | 1.54 nM | 6.15 nM | 1590 nM | 14 nM | 6.4 nM | 56.6 nM | 20.8 nM | 282 nM |
| – | – | – | – | – | – | – | – | – | CO[C@H]1C[C@@H]2CC[C@@H](C)[C@@](O)(O2)C(=O)C(=O)N2CCCC[C@H]2C(=O)O[C@H]([C@H](C)C[C@@H]2CC[C@@H](OC(=O)N[C@@H](CO)[C@H](C)O)[C@H](OC)C2)CC(=O)[C@H](C)/C=C(\C)[C@@H](O)[C@@H](OC)C(=O)[C@H](C)C[C@H](C)/C=C/C=C/C=C/1C [Compound 7q, Rapamycin-42-O-ester-(2S,3S)-2-amino-1,3-butanediol] | 6.35 nM | 1.29 nM | 9.15 nM | 1630 nM | 17.4 nM | 5.25 nM | 56.5 nM | 25.2 nM | 313 nM |
| 80 nM | 416 nM | 29.6 nM | 78.1 nM | 138 nM | 626 nM | 608 nM | 154 nM | 86.9 nM | CC[C@H](C)[C@H](NC(=O)O[C@@H]1CC[C@@H](C[C@@H](C)[C@@H]2CC(=O)[C@H](C)/C=C(\C)[C@@H](O)[C@@H](OC)C(=O)[C@H](C)C[C@H](C)/C=C/C=C/C=C(\C)[C@@H](OC)C[C@@H]3CC[C@@H](C)[C@@](O)(O3)C(=O)C(=O)N3CCCC[C@H]3C(=O)O2)C[C@H]1OC)C(=O)N[C@@H](CO)Cc1ccccc1 [Compound 7a, Rapamycin-42-O-ester-(NH-L-Ile-D-Phe-CH2OH)] | – | – | – | – | – | – | – | – | – |
| – | – | – | – | – | – | – | – | – | CO[C@H]1C[C@@H]2CC[C@@H](C)[C@@](O)(O2)C(=O)C(=O)N2CCCC[C@H]2C(=O)O[C@H]([C@H](C)C[C@@H]2CC[C@@H](OC(=O)NC(C)(CO)CO)[C@H](OC)C2)CC(=O)[C@H](C)/C=C(\C)[C@@H](O)[C@@H](OC)C(=O)[C@H](C)C[C@H](C)/C=C/C=C/C=C/1C [Compound 7p, Rapamycin-42-O-ester-2-amino-2-methyl-1,3-propanediol] | 8.8 nM | 1.17 nM | 17.7 nM | 2310 nM | 7.12 nM | 7.19 nM | 79.3 nM | 10.2 nM | 254 nM |
| – | – | – | – | – | – | – | – | – | COC(=O)C(NC(=O)O[C@@H]1CC[C@@H](C[C@@H](C)[C@@H]2CC(=O)[C@H](C)/C=C(\C)[C@@H](O)[C@@H](OC)C(=O)[C@H](C)C[C@H](C)/C=C/C=C/C=C(\C)[C@@H](OC)C[C@@H]3CC[C@@H](C)[C@@](O)(O3)C(=O)C(=O)N3CCCC[C@H]3C(=O)O2)C[C@H]1OC)C(=O)OC [Compound 7w] | 26.5 nM | 103 nM | 378 nM | 859 nM | 83.5 nM | 164 nM | – | – | – |
| – | – | – | – | – | – | – | – | – | CO[C@H]1C[C@@H]2CC[C@@H](C)[C@@](O)(O2)C(=O)C(=O)N2CCCC[C@H]2C(=O)O[C@H]([C@H](C)C[C@@H]2CC[C@@H](OC(=O)N[C@H](CO)Cc3ccccc3)[C@H](OC)C2)CC(=O)[C@H](C)/C=C(\C)[C@@H](O)[C@@H](OC)C(=O)[C@H](C)C[C@H](C)/C=C/C=C/C=C/1C [Compound 7j, Rapamycin-42-O-ester-(S) (−)-2-amino-3-phenyl-1-propanol] | 55.9 nM | 15.3 nM | 157 nM | – | 166 nM | 80 nM | 264 nM | 106 nM | 506 nM |
| 595 nM | – | 2440 nM | 946 nM | 937 nM | 3680 nM | – | – | – | CC[C@H](C)[C@H](NC(=O)[C@H](CC(C)C)NC(=O)[C@H](C)NC(=O)[C@@H](Cc1cn(C(c2ccccc2)(c2ccccc2)c2ccccc2)cn1)NC(=O)O[C@@H]1CC[C@@H](C[C@@H](C)[C@@H]2CC(=O)[C@H](C)/C=C(\C)[C@@H](O)[C@@H](OC)C(=O)[C@H](C)C[C@H](C)/C=C/C=C/C=C(\C)[C@@H](OC)C[C@@H]3CC[C@@H](C)[C@@](O)(O3)C(=O)C(=O)N3CCCC[C@H]3C(=O)O2)C[C@H]1OC)C(=O)N[C@@H](CO)Cc1ccccc1 [Compound 7g] | – | – | – | – | – | – | – | – | – |
| – | – | – | – | – | – | – | – | – | COC1CC2CCC(C)C(O)(O2)C(=O)C(=O)N2CCCCC2C(=O)OC(C(C)CC2CCC(OC(=O)NC(CO)CC(C)C)C(OC)C2)CC(=O)C(C)C=C(C)C(O)C(OC)C(=O)C(C)CC(C)C=CC=CC=C1C [Compound 7s, Rapamycin-42-O-ester-(R)-(−)-2-amino-4-methyl pentanol] | 93.6 nM | 15.6 nM | 154 nM | – | 189 nM | 97.3 nM | 355 nM | 103 nM | 625 nM |
| – | – | – | – | – | – | – | – | – | CO[C@H]1C[C@@H]2CC[C@@H](C)[C@@](O)(O2)C(=O)C(=O)N2CCCC[C@H]2C(=O)O[C@H]([C@H](C)C[C@@H]2CC[C@@H](OC(=O)CCC(=O)N[C@H](CO)Cc3ccccc3)[C@H](OC)C2)CC(=O)[C@H](C)/C=C(\C)[C@@H](O)[C@@H](OC)C(=O)[C@H](C)C[C@H](C)/C=C/C=C/C=C/1C [Compound 7v, Rapamycin-42-O-(3-carboxypropanoyl) ester-(S) (−)-2-amino-3-phenyl-1-propanol] | 10.4 nM | 5.52 nM | 81 nM | – | 48.3 nM | 18.8 nM | 95.5 nM | 15 nM | 1030 nM |
| 94.3 nM | 343 nM | 52.2 nM | 358 nM | 140 nM | – | 12700 nM | 198 nM | 137 nM | CC[C@H](C)[C@H](NC(=O)[C@@H](CC(C)C)NC(=O)O[C@@H]1CC[C@@H](C[C@@H](C)[C@@H]2CC(=O)[C@H](C)/C=C(\C)[C@@H](O)[C@@H](OC)C(=O)[C@H](C)C[C@H](C)/C=C/C=C/C=C(\C)[C@@H](OC)C[C@@H]3CC[C@@H](C)[C@@](O)(O3)C(=O)C(=O)N3CCCC[C@H]3C(=O)O2)C[C@H]1OC)C(=O)N[C@H](CO)Cc1ccccc1 [Compound 7d, Rapamycin-42-O-ester-(NH-D-Leu-L-Ile-S-Phe-CH2OH)] | – | – | – | – | – | – | – | – | – |
